Bridge positions count the residues as written; N and C are the ends. Square brackets hold non-standard residues; d marks the D form. Peptide text beside a SMILES is read from it. 1Nal = N[C@@H](Cc1cccc2ccccc12)C(=O)O
How the values were obtained:
[1] = target: T1, Potassium voltage-gated channel subfamily A member 3 (Homo sapiens, UniProt P22001); set-up: species or system Blood
[2] = target: T1, Potassium voltage-gated channel subfamily A member 3; test: cell-based; set-up: species or system Blood
[3] = target: T1, Potassium voltage-gated channel subfamily A member 3; assay type: cell-based, CHO-K1

T1 sequence (P22001 whole entry): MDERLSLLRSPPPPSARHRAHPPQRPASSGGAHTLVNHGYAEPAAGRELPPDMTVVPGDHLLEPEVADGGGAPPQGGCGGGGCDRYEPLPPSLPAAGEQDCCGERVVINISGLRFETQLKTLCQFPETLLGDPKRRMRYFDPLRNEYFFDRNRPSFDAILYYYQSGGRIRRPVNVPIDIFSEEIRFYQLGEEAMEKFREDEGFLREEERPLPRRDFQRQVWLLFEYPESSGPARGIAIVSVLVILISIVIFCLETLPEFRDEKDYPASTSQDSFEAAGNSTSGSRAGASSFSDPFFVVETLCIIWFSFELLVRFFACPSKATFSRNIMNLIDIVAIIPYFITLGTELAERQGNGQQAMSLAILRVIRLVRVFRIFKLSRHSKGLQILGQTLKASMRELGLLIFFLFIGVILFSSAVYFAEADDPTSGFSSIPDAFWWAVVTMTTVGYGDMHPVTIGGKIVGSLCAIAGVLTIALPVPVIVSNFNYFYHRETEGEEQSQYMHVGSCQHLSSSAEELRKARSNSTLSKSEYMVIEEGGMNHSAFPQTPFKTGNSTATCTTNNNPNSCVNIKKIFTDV

SMILES: CC[C@H](C)[C@@H]1NC(=O)[C@@H](NC(=O)[C@H](CO)NC(=O)[C@@H](N)CCCNC(=N)N)CSSC[C@@H](C(=O)O)NC(=O)[C@H]([C@@H](C)O)NC(=O)CNC(=O)[C@@H]2CSSC[C@@H]3NC(=O)[C@H](CCC(N)=O)NC(=O)[C@H](Cc4ccccc4)NC(=O)[C@H](C)NC(=O)[C@H]([C@@H](C)O)NC(=O)[C@H](CSSC[C@H](NC(=O)[C@H](Cc4ccccc4)NC(=O)[C@H](CO)NC(=O)[C@H](CC(C)C)NC(=O)[C@H](CCCNC(=N)N)NC(=O)[C@H](Cc4ccc(O)cc4)NC(=O)[C@H](CCCCN)NC(=O)[C@H](CCSC)NC(=O)[C@H](CO)NC(=O)[C@H](Cc4cnc[nH]4)NC(=O)[C@H](CCCCN)NC3=O)C(=O)N[C@@H](CCCNC(=N)N)C(=O)N[C@@H](CCC(=O)O)C(=O)N[C@@H]([C@@H](C)O)C(=O)N2)NC(=O)[C@H](CCCNC(=N)N)NC(=O)[C@H](CO)NC(=O)[C@H](CCCCN)NC(=O)[C@@H]2CCCN2C(=O)[C@H]([C@@H](C)CC)NC(=O)[C@H]([C@@H](C)O)NC(=O)[C@H](CC(=O)O)NC1=O
- IC50 [1]: 43 pM
- IC50 [2]: 20 pM
- IC50 [3]: 278 pM

SMILES: CC[C@H](C)[C@@H]1NC(=O)[C@@H](NC(=O)[C@H](CO)NC(=O)[C@@H](N)CCCNC(=N)N)CSSC[C@@H](C(=O)O)NC(=O)[C@H]([C@@H](C)O)NC(=O)CNC(=O)[C@@H]2CSSC[C@@H]3NC(=O)[C@H](CCC(N)=O)NC(=O)[C@H](Cc4ccccc4)NC(=O)[C@H](C)NC(=O)[C@H]([C@@H](C)O)NC(=O)[C@H](CSSC[C@H](NC(=O)[C@H](Cc4ccccc4)NC(=O)[C@H](CO)NC(=O)[C@H](CC(C)C)NC(=O)[C@H](CCCNC(=N)N)NC(=O)[C@H](Cc4ccc(O)cc4)NC(=O)[C@H](CCCCN)NC(=O)[C@H](CCCNC(=N)N)NC(=O)[C@H](CO)NC(=O)[C@H](Cc4cnc[nH]4)NC(=O)[C@H](CCCCN)NC3=O)C(=O)N[C@@H](CCCNC(=N)N)C(=O)N[C@@H](CCCCN)C(=O)N[C@@H]([C@@H](C)O)C(=O)N2)NC(=O)[C@H](CCCNC(=N)N)NC(=O)[C@H](CO)NC(=O)[C@H](CCCCN)NC(=O)[C@@H]2CCCN2C(=O)[C@H]([C@@H](C)CC)NC(=O)[C@H]([C@@H](C)O)NC(=O)[C@H](CC(=O)O)NC1=O
- IC50 [1]: 3080 pM
- IC50 [2]: 1490 pM
- IC50 [3]: 259 pM

SMILES: CC[C@H](C)[C@@H]1NC(=O)[C@@H](NC(=O)[C@H](CO)NC(=O)[C@@H](N)CCCNC(=N)N)CSSC[C@@H](C(=O)O)NC(=O)[C@H]([C@@H](C)O)NC(=O)CNC(=O)[C@@H]2CSSC[C@@H]3NC(=O)[C@H](CCC(N)=O)NC(=O)[C@H](Cc4ccccc4)NC(=O)[C@H](C)NC(=O)[C@H]([C@@H](C)O)NC(=O)[C@H](CSSC[C@H](NC(=O)[C@H](Cc4ccccc4)NC(=O)[C@H](CO)NC(=O)[C@H](CC(C)C)NC(=O)[C@H](CCCNC(=N)N)NC(=O)[C@H](Cc4ccc(O)cc4)NC(=O)[C@H](CCCCN)NC(=O)[C@H](CCSC)NC(=O)[C@H](CO)NC(=O)[C@H](Cc4cnc[nH]4)NC(=O)[C@H](CCCCN)NC3=O)C(=O)N[C@@H](CCCNC(=N)N)C(=O)N[C@@H](CCCCN)C(=O)N[C@@H]([C@@H](C)O)C(=O)N2)NC(=O)[C@H](CCCNC(=N)N)NC(=O)[C@H](CO)NC(=O)[C@H](CCCCN)NC(=O)[C@H](C)NC(=O)[C@H]([C@@H](C)CC)NC(=O)[C@H]([C@@H](C)O)NC(=O)[C@H](CC(=O)O)NC1=O
- IC50 [1]: 66 pM
- IC50 [2]: 34 pM
- IC50 [3]: 79 pM

SMILES: CC[C@H](C)[C@@H]1NC(=O)[C@@H](NC(=O)[C@H](CO)NC(=O)[C@@H](N)CCCNC(=N)N)CSSC[C@@H](C(=O)O)NC(=O)[C@H]([C@@H](C)O)NC(=O)CNC(=O)[C@@H]2CSSC[C@@H]3NC(=O)[C@H](CCCCN)NC(=O)[C@H](Cc4ccccc4)NC(=O)[C@H](C)NC(=O)[C@H]([C@@H](C)O)NC(=O)[C@H](CSSC[C@H](NC(=O)[C@H](Cc4ccccc4)NC(=O)[C@H](CO)NC(=O)[C@H](CC(C)C)NC(=O)[C@H](CCCNC(=N)N)NC(=O)[C@H](Cc4ccc(O)cc4)NC(=O)[C@H](CCCCN)NC(=O)[C@H](CCCCN)NC(=O)[C@H](CO)NC(=O)[C@H](Cc4cnc[nH]4)NC(=O)[C@H](CCCCN)NC3=O)C(=O)N[C@@H](CCCNC(=N)N)C(=O)N[C@@H](CCCCN)C(=O)N[C@@H]([C@@H](C)O)C(=O)N2)NC(=O)[C@H](CCCNC(=N)N)NC(=O)[C@H](CO)NC(=O)[C@H](CCCCN)NC(=O)[C@@H]2CCCN2C(=O)[C@H]([C@@H](C)CC)NC(=O)[C@H]([C@@H](C)O)NC(=O)[C@H](CC(=O)O)NC1=O
- IC50 [1]: 5680 pM
- IC50 [2]: 249 pM
- IC50 ([3]; cho-k1): 130 pM

SMILES: CC[C@H](C)[C@@H]1NC(=O)[C@@H](NC(=O)[C@H](CO)NC(=O)[C@@H](N)CCC(=O)O)CSSC[C@@H](C(=O)O)NC(=O)[C@H]([C@@H](C)O)NC(=O)CNC(=O)[C@@H]2CSSC[C@@H]3NC(=O)[C@H](CCC(N)=O)NC(=O)[C@H](Cc4ccccc4)NC(=O)[C@H](C)NC(=O)[C@H]([C@@H](C)O)NC(=O)[C@H](CSSC[C@H](NC(=O)[C@H](Cc4ccccc4)NC(=O)[C@H](CO)NC(=O)[C@H](CC(C)C)NC(=O)[C@H](CCCNC(=N)N)NC(=O)[C@H](Cc4ccc(O)cc4)NC(=O)[C@H](CCCCN)NC(=O)[C@H](CCSC)NC(=O)[C@H](CO)NC(=O)[C@H](Cc4cnc[nH]4)NC(=O)[C@H](CCCCN)NC3=O)C(=O)N[C@@H](CCCNC(=N)N)C(=O)N[C@@H](CCCCN)C(=O)N[C@@H]([C@@H](C)O)C(=O)N2)NC(=O)[C@H](CCCNC(=N)N)NC(=O)[C@H](CO)NC(=O)[C@H](CCCCN)NC(=O)[C@@H]2CCCN2C(=O)[C@H]([C@@H](C)CC)NC(=O)[C@H]([C@@H](C)O)NC(=O)[C@H](CC(=O)O)NC1=O
- IC50 [1]: 249 pM
- IC50 [2]: 214 pM
- IC50 [3]: 151 pM

SMILES: CC[C@H](C)[C@@H]1NC(=O)[C@@H](NC(=O)[C@H](CCC(=O)O)NC(=O)[C@@H](N)CCCNC(=N)N)CSSC[C@@H](C(=O)O)NC(=O)[C@H]([C@@H](C)O)NC(=O)CNC(=O)[C@@H]2CSSC[C@@H]3NC(=O)[C@H](CCC(N)=O)NC(=O)[C@H](Cc4ccccc4)NC(=O)[C@H](C)NC(=O)[C@H]([C@@H](C)O)NC(=O)[C@H](CSSC[C@H](NC(=O)[C@H](Cc4ccccc4)NC(=O)[C@H](CO)NC(=O)[C@H](CC(C)C)NC(=O)[C@H](CCCNC(=N)N)NC(=O)[C@H](Cc4ccc(O)cc4)NC(=O)[C@H](CCCCN)NC(=O)[C@H](CCSC)NC(=O)[C@H](CO)NC(=O)[C@H](Cc4cnc[nH]4)NC(=O)[C@H](CCCCN)NC3=O)C(=O)N[C@@H](CCCNC(=N)N)C(=O)N[C@@H](CCCCN)C(=O)N[C@@H]([C@@H](C)O)C(=O)N2)NC(=O)[C@H](CCCNC(=N)N)NC(=O)[C@H](CO)NC(=O)[C@H](CCCCN)NC(=O)[C@@H]2CCCN2C(=O)[C@H]([C@@H](C)CC)NC(=O)[C@H]([C@@H](C)O)NC(=O)[C@H](CC(=O)O)NC1=O
- IC50 [1]: 39 pM
- IC50 [2]: 29 pM
- IC50 [3]: 95 pM

SMILES: CC[C@H](C)[C@@H]1NC(=O)[C@@H](NC(=O)[C@H](CO)NC(=O)[C@@H](N)CCCNC(=N)N)CSSC[C@@H](C(=O)O)NC(=O)[C@H]([C@@H](C)O)NC(=O)CNC(=O)[C@@H]2CSSC[C@@H]3NC(=O)[C@H](CCC(N)=O)NC(=O)[C@H](Cc4ccccc4)NC(=O)[C@H](CCC(=O)O)NC(=O)[C@H]([C@@H](C)O)NC(=O)[C@H](CSSC[C@H](NC(=O)[C@H](Cc4ccccc4)NC(=O)[C@H](CO)NC(=O)[C@H](CC(C)C)NC(=O)[C@H](CCCNC(=N)N)NC(=O)[C@H](Cc4ccc(O)cc4)NC(=O)[C@H](CCCCN)NC(=O)[C@H](CCSC)NC(=O)[C@H](CO)NC(=O)[C@H](Cc4cnc[nH]4)NC(=O)[C@H](CCCCN)NC3=O)C(=O)N[C@@H](CCCNC(=N)N)C(=O)N[C@@H](CCCCN)C(=O)N[C@@H]([C@@H](C)O)C(=O)N2)NC(=O)[C@H](CCCNC(=N)N)NC(=O)[C@H](CO)NC(=O)[C@H](CCCCN)NC(=O)[C@@H]2CCCN2C(=O)[C@H]([C@@H](C)CC)NC(=O)[C@H]([C@@H](C)O)NC(=O)[C@H](Cc2cccc3ccccc23)NC1=O (H-RSCI[1Nal]TIPKSRCTEFQCKHSMKYRLSFCRKTCGTC-OH; disulfide 3-35, 12-28, 17-32)
- IC50 [1]: 132 pM
- IC50 [2]: 36 pM
- IC50 [3]: 110 pM

SMILES: CC[C@H](C)[C@@H]1NC(=O)[C@H]([C@@H](C)O)NC(=O)[C@H](CC(=O)O)NC(=O)[C@H](CCC(=O)O)NC(=O)[C@@H](NC(=O)[C@H](CO)NC(=O)[C@@H](N)CCCNC(=N)N)CSSC[C@@H](C(=O)O)NC(=O)[C@H]([C@@H](C)O)NC(=O)CNC(=O)[C@@H]2CSSC[C@@H]3NC(=O)[C@H](CCC(N)=O)NC(=O)[C@H](Cc4ccccc4)NC(=O)[C@H](C)NC(=O)[C@H]([C@@H](C)O)NC(=O)[C@H](CSSC[C@H](NC(=O)[C@H](Cc4ccccc4)NC(=O)[C@H](CO)NC(=O)[C@H](CC(C)C)NC(=O)[C@H](CCCNC(=N)N)NC(=O)[C@H](Cc4ccc(O)cc4)NC(=O)[C@H](CCCCN)NC(=O)[C@H](CCSC)NC(=O)[C@H](CO)NC(=O)[C@H](Cc4cnc[nH]4)NC(=O)[C@H](CCCCN)NC3=O)C(=O)N[C@@H](CCCNC(=N)N)C(=O)N[C@@H](CCCCN)C(=O)N[C@@H]([C@@H](C)O)C(=O)N2)NC(=O)[C@H](CCCNC(=N)N)NC(=O)[C@H](CO)NC(=O)[C@H](CCCCN)NC(=O)[C@@H]2CCCN2C1=O
- IC50 [1]: 50 pM
- IC50 [2]: 31 pM
- IC50 [3]: 75 pM

SMILES: CC[C@H](C)[C@@H]1NC(=O)[C@@H](NC(=O)[C@H](CO)NC(=O)[C@@H](N)CCCNC(=N)N)CSSC[C@@H](C(=O)O)NC(=O)[C@H]([C@@H](C)O)NC(=O)CNC(=O)[C@@H]2CSSC[C@@H]3NC(=O)[C@H](CCC(N)=O)NC(=O)[C@H](Cc4ccccc4)NC(=O)[C@H](C)NC(=O)[C@H]([C@@H](C)O)NC(=O)[C@H](CSSC[C@H](NC(=O)[C@H](Cc4ccccc4)NC(=O)[C@H](CO)NC(=O)[C@H](CC(C)C)NC(=O)[C@H](CCCNC(=N)N)NC(=O)[C@H](Cc4ccc(O)cc4)NC(=O)[C@H](CCCCN)NC(=O)[C@H](CCSC)NC(=O)[C@H](CCCNC(=N)N)NC(=O)[C@H](Cc4cnc[nH]4)NC(=O)[C@H](CCCCN)NC3=O)C(=O)N[C@@H](CCCNC(=N)N)C(=O)N[C@@H](CCCCN)C(=O)N[C@@H]([C@@H](C)O)C(=O)N2)NC(=O)[C@H](CCCNC(=N)N)NC(=O)[C@H](CO)NC(=O)[C@H](CCCCN)NC(=O)[C@@H]2CCCN2C(=O)[C@H]([C@@H](C)CC)NC(=O)[C@H]([C@@H](C)O)NC(=O)[C@H](CC(=O)O)NC1=O
- IC50 [1]: 40300 pM
- IC50 [2]: 25300 pM
- IC50 [3]: > 3330 pM
